{"source": "patent US11028069B2", "about": "“Salt of substituted piperidine compound” (TAIHO PHARMACEUTICAL CO., LTD., priority 2016, dated 2021)", "key": {"[1]": {"test": "Absorption test, oral administration to mice, plasma concentration by LC/MS", "type": "in vivo", "conditions": "BALB/cA mice, 50 mg/kg in terms of Compound 1, suspended in 0.5% HPMC", "description": "The hydrochloride salt of Compound 1 was suspended in 0.5% HPMC, and orally administered to BALB/cA mice at 50 mg/kg in terms of the dose of Compound 1. At 0.5, 1, 2, 4, and 6 hours after the oral administration, the blood was collected from the eyeground, and the plasma was obtained. The compound concentration in the obtained plasma was measured by LC/MS (Agilent Technologies Inc. Agilent 1200, AB Sciex Pte. Ltd. AB Sciex API400) and the oral absorption was evaluated."}, "[2]": {"test": "Stability test (solid change) by DSC measurement", "type": "physicochemical", "conditions": "crystals, 10° C./min, room temperature to 300° C.", "description": "The DSC measurement was conducted according to the following test conditions. • Equipment: TA Instruments Q1000 • Sample: about 5 mg • Rate of temperature increase: 10° C./min • Measurement temperature: Room temperature to 300° C."}, "[3]": {"test": "Solubility measurement, Japanese Pharmacopoeia Dissolution test", "type": "physicochemical", "conditions": "crystals; for solubility, 1st fluid for dissolution test: Japanese Pharmacopoeia 1st fluid for dissolution test; for solubility, 2nd fluid for dissolution test: Japanese Pharmacopoeia 2nd fluid for dissolution test", "description": "The solubility measurement was conducted on the hydrochloride salt, the mesylate salt, the potassium salt, and the sodium salt of Compound 1 and the free form of Compound 1. Specifically, the solubility of the samples: the crystals of the hydrochloride salt of Compound 1 produced in Example 1; the crystals of the mesylate salt of Compound 1 produced in Comparative Example 1; the crystals of the potassium salt of Compound 1 produced in Comparative Example 2; the crystals of the sodium salt of Compound 1 produced in Comparative Example 3; and the crystal of the free form of Compound 1, in the 1st and 2nd fluids for dissolution test according to Japanese Pharmacopoeia was measured according to Japanese Pharmacopoeia, Dissolution test."}, "[4]": {"test": "Stability test (purity) by liquid chromatography after storage", "type": "physicochemical", "conditions": "for purity (%) in samples, 40° C. (open system): crystals left at 40° C. (open system) for 1 month; for purity (%) in samples, 60° C. (open system): crystals left at 60° C. (open system) for 1 month; for purity (%) in samples, under light irradiation: crystals left under light irradiation (1200000 Lux·hr) for 1 month; for purity (%) in samples, before starting test: crystals", "description": "The measurement by liquid chromatography was conducted according to the following test conditions. • Equipment: Agilent Technologies, Inc., 1200 Series Binary LC System • Mobile phase A: 10 mM Na2HPO4 aqueous solution (pH 6.5) • Mobile phase B: Acetonitrile • Gradient: described in Table 1 • Column: Ascentis Express C18, 150 mm×4.6 mm i.d., 2.7 μm • Measurement wavelength: 210 nm\nThe crystals of the hydrochloride salt, the mesylate salt, the potassium salt, the sodium salt, and the free form of Compound 1 obtained in Example 1 and Comparative Examples 1 to 4 were each left under conditions at 40° C. (open system), at 60° C. (open system), and under light irradiation (1200000 Lux·hr) for 1 month. Subsequent measurement of purity by liquid chromatography indicated the purity change between before and after the test was 0.2% or less in any of the conditions."}, "[5]": {"test": "Dynamic vapor sorption system (DVS) analysis (hygroscopicity)", "type": "physicochemical", "conditions": "increase of humidity from 5% to 75% RH, 25° C.", "description": "The dynamic vapor sorption system (DVS) analysis was conducted under the following conditions. • Equipment: TA Instruments VTI SGA-100 • Sample: about 10 mg • Measurement temperature: 25° C. • RH steps: 5-95-1% RH by 5% RH\nThe hygroscopicity of the hydrochloride salt of Compound 1 obtained in Example 1 and the potassium salt obtained in Comparative Example 2 was examined by dynamic vapor sorption system (DVS) analysis. The adsorption and desorption data was collected at 5% relative humidity (RH) intervals in the range of 5% to 95% RH. Before the measurement, the temperature was increased at 1° C./min to 25° C. under nitrogen purging and the salts were dried for up to 6 hours until the weight change in 5 minutes became less than 0.0100%. At the time of the measurement, up to 2 hours of equilibration was conducted until the weight change in 5 minutes became less than 0.0100%."}}, "note": "Where a name gives a salt, the structure may show the parent alone."}
{"smiles": "Cc1cc(Nc2nc(CC3(C(=O)O)CCN(C(=O)c4cccc(Cl)c4Cl)CC3)ccc2F)n[nH]1", "note": "[Free form, 1-(2,3-dichlorobenzoyl)-4-((5-fluoro-6-(5-methyl-1H-pyrazol-3-ylamino)pyridin-2-yl)methyl)piperidine-4-carboxylic acid]", "values": [{"measurement": "Plasma concentration AUC0-6 h", "setting": "[1]", "value": 0.43, "unit": "µM·h"}, {"measurement": "DSC chart: endothermic and exothermic processes at relatively low temperatures (solid change)", "setting": "[2]", "value": "such charts were not obtained"}, {"measurement": "solubility, 1st fluid for dissolution test", "setting": "[3]", "value": 24, "unit": "µg/mL"}, {"measurement": "solubility, 2nd fluid for dissolution test", "setting": "[3]", "value": 6, "unit": "µg/mL"}]}
{"smiles": "Cc1cc(Nc2nc(CC3(C(=O)O)CCN(C(=O)c4cccc(Cl)c4Cl)CC3)ccc2F)n[nH]1", "note": "[Hydrochloride salt, 1-(2,3-dichlorobenzoyl)-4-((5-fluoro-6-(5-methyl-1H-pyrazol-3-ylamino)pyridin-2-yl)methyl)piperidine-4-carboxylic acid]", "values": [{"measurement": "purity (%) in samples, 40° C. (open system)", "setting": "[4]", "value": 99.2, "unit": "%"}, {"measurement": "purity (%) in samples, 60° C. (open system)", "setting": "[4]", "value": 99.3, "unit": "%"}, {"measurement": "purity (%) in samples, under light irradiation", "setting": "[4]", "value": 99.4, "unit": "%"}, {"measurement": "purity (%) in samples, before starting test", "setting": "[4]", "value": 99.4, "unit": "%"}, {"measurement": "weight change in DVS analysis", "setting": "[5]; listed as hydrochloride salt of Compound 1", "value": "less than 0.5%"}, {"measurement": "weight change in DVS analysis", "setting": "[5]; listed as hydrochloride salt of the present invention", "value": "less than 0.5%"}, {"measurement": "Plasma concentration AUC0-6 h", "setting": "[1]", "value": 18.2, "unit": "µM·h"}, {"measurement": "DSC chart: endothermic and exothermic processes at relatively low temperatures (solid change)", "setting": "[2]", "value": "such charts were not obtained"}, {"measurement": "solubility, 1st fluid for dissolution test", "setting": "[3]", "value": ">1000", "unit": "µg/mL"}, {"measurement": "solubility, 2nd fluid for dissolution test", "setting": "[3]", "value": ">1000", "unit": "µg/mL"}]}
{"smiles": "Cc1cc(Nc2nc(CC3(C(=O)O)CCN(C(=O)c4cccc(Cl)c4Cl)CC3)ccc2F)n[nH]1", "note": "[Mesylate salt, 1-(2,3-dichlorobenzoyl)-4-((5-fluoro-6-(5-methyl-1H-pyrazol-3-ylamino)pyridin-2-yl)methyl)piperidine-4-carboxylic acid]", "values": [{"measurement": "DSC chart: endothermic and exothermic processes at relatively low temperatures (solid change)", "setting": "[2]", "value": "such charts were not obtained"}, {"measurement": "solubility, 1st fluid for dissolution test", "setting": "[3]", "value": 490, "unit": "µg/mL"}, {"measurement": "solubility, 2nd fluid for dissolution test", "setting": "[3]", "value": 420, "unit": "µg/mL"}]}
{"smiles": "Cc1cc(Nc2nc(CC3(C(=O)O)CCN(C(=O)c4cccc(Cl)c4Cl)CC3)ccc2F)n[nH]1", "note": "[Potassium salt, 1-(2,3-dichlorobenzoyl)-4-((5-fluoro-6-(5-methyl-1H-pyrazol-3-ylamino)pyridin-2-yl)methyl)piperidine-4-carboxylic acid]", "values": [{"measurement": "purity (%) in samples, 40° C. (open system)", "setting": "[4]", "value": 99.7, "unit": "%"}, {"measurement": "purity (%) in samples, 60° C. (open system)", "setting": "[4]", "value": 99.8, "unit": "%"}, {"measurement": "purity (%) in samples, under light irradiation", "setting": "[4]", "value": 99.8, "unit": "%"}, {"measurement": "purity (%) in samples, before starting test", "setting": "[4]", "value": 99.8, "unit": "%"}, {"measurement": "weight change in DVS analysis", "setting": "[5]", "value": "exceeded 14%"}, {"measurement": "DSC chart: endothermic and exothermic processes at relatively low temperatures (solid change)", "setting": "[2]", "value": "charts suggesting endothermic and exothermic processes at relatively low temperatures were obtained"}, {"measurement": "solubility, 1st fluid for dissolution test", "setting": "[3]", "value": ">1000", "unit": "µg/mL"}, {"measurement": "solubility, 2nd fluid for dissolution test", "setting": "[3]", "value": 730, "unit": "µg/mL"}]}
{"smiles": "Cc1cc(Nc2nc(CC3(C(=O)O)CCN(C(=O)c4cccc(Cl)c4Cl)CC3)ccc2F)n[nH]1", "note": "[Sodium salt, 1-(2,3-dichlorobenzoyl)-4-((5-fluoro-6-(5-methyl-1H-pyrazol-3-ylamino)pyridin-2-yl)methyl)piperidine-4-carboxylic acid]", "values": [{"measurement": "weight change in DVS analysis", "setting": "[5]; listed as sodium salt of Compound 1", "value": "≥ 40", "unit": "%"}, {"measurement": "DSC chart: endothermic and exothermic processes at relatively low temperatures (solid change)", "setting": "[2]", "value": "charts suggesting endothermic and exothermic processes at relatively low temperatures were obtained"}, {"measurement": "solubility, 1st fluid for dissolution test", "setting": "[3]", "value": ">1000", "unit": "µg/mL"}, {"measurement": "solubility, 2nd fluid for dissolution test", "setting": "[3]", "value": ">1000", "unit": "µg/mL"}]}
